The source of these data is US8883826B2, “Alkynyl derivatives as modulators of metabotropic glutamate receptors” (Addex Pharma SA, priority 2004, dated 2014).

Each structure is given as a SMILES string. Entries after “also recorded” stand apart in the source; their conditions may differ. A value given as a limit tells only on which side of the number the result lay.

In one data set the target is T1, mGluR5 (Rattus norvegicus, UniProt P31424).
T1 construct: tissue Charles River Laboratories; host or cells: rat brain cortex membranes (Sprague-Dawley)
T1 sequence (P31424 21-1203): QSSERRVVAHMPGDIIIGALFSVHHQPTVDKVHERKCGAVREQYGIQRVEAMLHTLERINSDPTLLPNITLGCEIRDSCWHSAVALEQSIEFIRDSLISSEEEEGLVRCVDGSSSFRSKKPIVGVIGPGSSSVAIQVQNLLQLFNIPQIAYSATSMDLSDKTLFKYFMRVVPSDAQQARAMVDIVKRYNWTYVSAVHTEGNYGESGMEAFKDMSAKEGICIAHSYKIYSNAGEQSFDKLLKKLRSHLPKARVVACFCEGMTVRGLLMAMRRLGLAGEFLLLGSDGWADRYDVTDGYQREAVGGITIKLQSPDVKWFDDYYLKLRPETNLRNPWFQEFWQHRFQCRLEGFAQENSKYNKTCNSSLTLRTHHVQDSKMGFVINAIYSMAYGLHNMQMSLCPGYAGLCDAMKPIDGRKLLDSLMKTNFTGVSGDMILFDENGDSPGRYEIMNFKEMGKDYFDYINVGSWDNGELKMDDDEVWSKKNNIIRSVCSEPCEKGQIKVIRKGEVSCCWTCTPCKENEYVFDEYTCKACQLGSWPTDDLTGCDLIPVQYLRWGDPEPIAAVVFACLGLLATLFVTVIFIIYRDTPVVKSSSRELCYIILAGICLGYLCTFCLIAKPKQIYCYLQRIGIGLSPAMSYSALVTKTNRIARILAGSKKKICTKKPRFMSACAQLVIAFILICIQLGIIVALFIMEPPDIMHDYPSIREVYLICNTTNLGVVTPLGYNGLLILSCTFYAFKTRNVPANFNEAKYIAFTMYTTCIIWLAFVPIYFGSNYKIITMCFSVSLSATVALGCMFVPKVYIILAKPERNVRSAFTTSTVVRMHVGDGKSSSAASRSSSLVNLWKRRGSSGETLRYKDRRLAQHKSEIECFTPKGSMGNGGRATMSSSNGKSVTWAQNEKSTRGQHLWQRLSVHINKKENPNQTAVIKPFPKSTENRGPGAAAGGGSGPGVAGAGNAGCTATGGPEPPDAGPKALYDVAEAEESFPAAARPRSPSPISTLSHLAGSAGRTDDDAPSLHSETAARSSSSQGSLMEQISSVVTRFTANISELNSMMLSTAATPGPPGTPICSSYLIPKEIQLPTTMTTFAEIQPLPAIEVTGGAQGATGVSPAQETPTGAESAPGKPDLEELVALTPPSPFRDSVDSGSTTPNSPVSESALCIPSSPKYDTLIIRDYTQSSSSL
As to the kind of experiment: mGluR5 binding assay ([3H]-MPEP radioligand competition). Conditions: competition with 3 nM [3H]-MPEP, rat brain cortical membranes, 1 h at 4 °C; mean of at least three independent experiments in duplicate. Put shortly:
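Rat cortical membranes (50 μg) were incubated 1 h at 4 °C with 3 nM [3H]-MPEP and compound (0.003 nM-30 μM, 8 points) in HEPES buffer pH 7.4 with Mg2+, Ca2+ and NaCl. 30 μM MPEP defined non-specific binding, and bound label was counted after filtration. IC50 came from non-linear regression, as the mean of ≥3 experiments run in duplicate.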
(In general: Loss of bound radioactivity is the signal in a displacement assay; it reports binding, not function.)

In another data set the test system is Male Sprague-Dawley rats. The experiment in a line: Vogel conflict drinking model of anxiety. The class given is in vivo, rat. Conditions: 30 mg/kg po, n=9-10/group, t(1, 17)=2.593, hydrochloride. The text has this: Vogel Conflict Drinking Model of Anxiety in Rats
The Vogel conflict drinking model involves the conflict between thirst and receiving mild shocks for drinking water (punished drinking). Water-deprived rats are placed in a chamber and are periodically shocked for drinking water. The shocks suppress drinking and anxiolytics reverse this shock-induced suppression of drinking. The Vogel conflict drinking model was first proposed as a screening model for anxiolytics (Vogel, J. R. et al., Psychopharmacologia (Berl.), 21:1-7 (1971)) and is widely accepted as a robust model for testing the anxiolytic-like properties of compounds (Millan, M. J. and Brocco M., European Journal of Pharmacology, 463:67-96 (2003)).
Such compounds may be useful in the treatment of anxiety and related disorders. […]
The effect of compounds on drinking in the Vogel conflict drinking model in rats was tested. […] The number of punished drinks was counted automatically by the computer interface. […]
Statistical analyses were performed using GraphPad PRISM version 4.01 statistical software (GraphPad, San Diego, Calif., USA). Data were analyzed using one-way analysis of variance (ANOVA) followed by Bonferroni multiple comparisons. […]

Another data set deals with Male C57BL6/j mice. As to the kind of experiment: Marble burying model of anxiety. The class given is in vivo, mouse. The note with it: 50 mg/kg po, 60 minutes prior to test, n=10/group, t (1, 18)=3.92. The text has this: Marble Burying Model of Anxiety
Marble burying behavior in mice is reduced by compounds which are efficacious anxiolytics in humans. Thus, marble burying in mice has been used as a model for the prediction of anxiolytic-like effects of compounds (Millan, M. J. et al., Neuropharmacology, 42:677-684 (2002)).
Selective negative allosteric modulators (allosteric antagonists) of the metabotropic glutamate receptor subtype 5 (mGluR5) have been shown previously to reduce marble burying in mice (Spooren, W. P. et al., Journal of Pharmacology and Experimental Therapeutics, 295:1267-1275 (2000)). […] Such compounds may be useful in the treatment of anxiety and related disorders.
The present studies were performed in accordance with the animal care and use policies of Addex Pharmaceuticals and the EEC directives on the protection of animals used for experimental and other scientific purposes (86/609/EEC and subsequent revisions). […]
The effect of compounds on marble burying in mice was tested. […] After removal of the mice from the test cages, the number of marbles buried was counted. […]
Statistical analyses were performed using GraphPad PRISM version 4.01 statistical software (GraphPad, San Diego, Calif., USA). Data were analyzed using one-way analysis of variance (ANOVA) followed by Bonferroni-corrected multiple comparisons, or t tests if only 2 groups were present. […]

With `Cl.FCc1cccc(C#CCCn2nc3ccccc3n2)n1` [Example 130, 2-(4-(6-(Fluoromethyl)pyridin-2-yl)but-3-ynyl)-2H-benzo[d][1,2,3]triazole hydrochloride], the melting point (usually the temperature, or range, at which the solid turns liquid) was in the range of 172.5 to 173.5 °C. Besides, the IC50 – broadly, the concentration that gives 50% inhibition – on mGluR5 is less than 0.05 µM. Besides, the “punished drinking in the Vogel conflict drinking test (vs vehicle)” value in the data set with Male Sprague-Dawley rats is given as “significantly increases punished drinking; also recorded: took significantly more punished licks than vehicle injected controls”.
`Cc1cc(F)ccc1NC(=O)CCC#Cc1ccccn1` [Example 188, N-(4-Fluoro-2-methyl-phenyl)-5-(pyridin-2-yl)pent-4-ynamide] displayed a melting point of 110 to 114 °C. The IC50 at mGluR5 is less than 10 µM.
On to `Cn1c(CCC#Cc2cccc(CF)n2)nc2ccccc21` [Example 190, 2-(4-(6-(Fluoromethyl)pyridin-2-yl)but-3-ynyl)-1-methyl-1H-benzo[d]imidazole], for which the melting point lay within 95.3 to 96.3 °C. This molecule also registered an IC50 on mGluR5 of less than 0.5 µM.
In turn, `Cn1c(CCC#Cc2cccc(CF)n2)nc2c(F)cc(F)cc21` [Example 193, 4,6-Difluoro-2-(4-(6-(fluoromethyl)pyridin-2-yl)but-3-ynyl)-1-methyl-1H-benzo[d]imidazole] showed a melting point of 103 to 104 °C. At mGluR5, this molecule displayed an IC50 of less than 0.5 µM.
On the same counts, the results for `Cc1nc(C#CCCn2nc3ccccc3n2)sc1C` [Example 222, 2-(4-(4,5-Dimethylthiazol-2-yl)but-3-ynyl)-2H-benzo[d][1,2,3]triazole] are 96 to 98 °C and less than 10 µM.
Take `FCc1cccc(C#CCCc2cn3cc(F)ccc3n2)n1` [Example 223, 6-Fluoro-2-(4-(6-(fluoromethyl)pyridin-2-yl)but-3-ynyl)H-imidazo[1,2-a]pyridine]: the melting point fell in the range of 140 to 141.8 °C. At mGluR5, this molecule yielded an IC50 of less than 0.5 µM.
`FCc1nc(C#CCCc2cn3cc(F)ccc3n2)cs1` [Example 224, 6-Fluoro-2-(4-(2-(fluoromethyl)thiazol-4-yl)but-3-ynyl)-imidazo[1,2-a]pyridine] registered a melting point of 82 to 84 °C. On mGluR5, the IC50 was less than 0.05 µM.
On the same counts, the results for `FCc1cccc(C#CCCc2cn3cccc(OCc4ccccc4)c3n2)n1` [Example 226, 8-(Benzyloxy)-2-(4-(6-(fluoromethyl)pyridin-2-yl)but-3-ynyl)-imidazo[1,2-a]pyridine] are 92 to 94 °C and less than 10 µM.
On the same counts, the results for `Fc1cc(F)c2nc(CCC#Cc3ccccn3)cn2c1` [Example 228, 6,8-Difluoro-2-(4-(pyridin-2-yl)but-3-ynyl)-imidazo[1,2-a]pyridine] are 130 to 131 °C and less than 0.05 µM.
As to `Fc1cccnc1C#CCCc1nc2ccccc2o1` [Example 230], the melting point fell in the range of 86 to 88 °C. Besides, on mGluR5, the IC50 was less than 10 µM.
On the same counts, the results for `Cc1nc(C#CCCc2nc3ccccc3o2)c[nH]1` [Example 231, 2-(4-(2-Methyl-1H-imidazol-4-yl)but-3-ynyl)benzo[d]oxazole] are 152 to 154 °C and less than 10 µM.
`O=C(CCC#Cc1cccc(CF)n1)Nc1ccc(F)cc1` [Example 232, 5-(6-(Fluoromethyl)pyridin-2-yl)-N-(4-fluorophenyl)pent-4-ynamide] registered a melting point of 110 °C. The molecule further registered an IC50 at mGluR5 of less than 10 µM.
`Cc1nc(C#CCCc2nc3ccccc3o2)cn1C` [Example 233, 2-(4-(1,2-Dimethyl-1H-imidazol-4-yl)but-3-ynyl)benzo[d]oxazole] yielded a melting point of 117 to 119 °C. This molecule also displayed an IC50 on mGluR5 of less than 10 µM.
On the same counts, the results for `O=C1c2ccccc2CN1CCC#Cc1ccccn1` [Example 234, 2-(4-(Pyridin-2-yl)but-3-ynyl)isoindolin-1-one] are 94 to 98 °C and less than 10 µM.
For the molecule `FCc1cccc(C#CCCc2nc3ccccc3s2)n1` [Example 241, 2-(4-(6-(Fluoromethyl)pyridin-2-yl)but-3-ynyl)benzo[d]thiazole], the melting point lay within 74 to 76 °C. This molecule also came in with an IC50 at mGluR5 of less than 0.05 µM.
The like results for `O=C1c2ccccc2C(=O)N1CCCC#Cc1ccccn1` [Example 242, 2-(5-(Pyridin-2-yl)pent-4-ynyl)isoindoline-1,3-dione] were, in that order, 127 to 129 °C and less than 10 µM.
On the same counts, the results for `O=C(CCC#Cc1ccccn1)Nc1ccc(Cl)cc1` [Example 244, N-(4-Chlorophenyl)-5-(pyridin-2-yl)pent-4-ynamide] are 110 to 111 °C and less than 10 µM.
The like results for `O=C(CCC#Cc1ccccn1)Nc1cccc(Cl)c1` [Example 245, N-(3-Chlorophenyl)-5-(pyridin-2-yl)pent-4-ynamide] were, in that order, 167.8 to 168.8 °C and less than 10 µM.
In the case of `O=C(CCC#Cc1ccccn1)Nc1ccc(F)cc1F` [Example 246, N-(2,4-Difluorophenyl)-5-(pyridin-2-yl)pent-4-ynamide], the melting point is 132 to 133.2 °C. The molecule further had an IC50 on mGluR5 of less than 10 µM.
The like results for `Fc1ccc(-c2cnn(CCC#Cc3ccccn3)n2)cc1` [Example 249, 2-(4-(4-(4-Fluorophenyl)-2H-1,2,3-triazol-2-yl)but-1-ynyl)pyridine] were, in that order, 83.5 to 84.5 °C and less than 10 µM.
The molecule `Clc1cccn2cc(CCC#Cc3ccccn3)nc12` [Example 255, 8-Chloro-2-(4-(pyridin-2-yl)but-3-ynyl)-imidazo[1,2-a]pyridine] yielded a melting point of 106 to 107 °C. At mGluR5, this molecule came in with an IC50 of less than 0.05 µM. The “marble burying in mice (number of marbles buried vs vehicle)” value in the data set on Male C57BL6/j mice is “significantly attenuates marble burying; also recorded: buried significantly fewer marbles than vehicle-treated mice”.
